Experimental data published in the NIST ThermoML archive (doi:10.1016/j.jct.2016.08.005).

Conditions: Liquid, Vibrating tube method

Cc1cccs1 [2-methylthiophene]
Conditions | mass density [kg/m3]
283.15 K, 100 kPa | 1030.98
283.15 K, 2000 kPa | 1032.44
283.15 K, 5000 kPa | 1034.69
283.15 K, 7000 kPa | 1036.18
283.15 K, 10000 kPa | 1038.39
283.15 K, 15000 kPa | 1041.92
283.15 K, 20000 kPa | 1045.36
283.15 K, 25000 kPa | 1048.69
283.15 K, 30000 kPa | 1051.93
283.15 K, 35000 kPa | 1055.07
283.15 K, 40000 kPa | 1058.12
283.15 K, 45000 kPa | 1061.09
283.15 K, 50000 kPa | 1063.97
283.15 K, 55000 kPa | 1066.8
283.15 K, 60000 kPa | 1069.53
283.15 K, 65000 kPa | 1072.21
288.15 K, 100 kPa | 1025.61
288.15 K, 2000 kPa | 1027.12
288.15 K, 5000 kPa | 1029.45
288.15 K, 7000 kPa | 1030.97
288.15 K, 10000 kPa | 1033.22
288.15 K, 15000 kPa | 1036.86
288.15 K, 20000 kPa | 1040.39
288.15 K, 25000 kPa | 1043.79
288.15 K, 30000 kPa | 1047.1
288.15 K, 35000 kPa | 1050.32
288.15 K, 40000 kPa | 1053.43
288.15 K, 45000 kPa | 1056.47
288.15 K, 50000 kPa | 1059.42
288.15 K, 55000 kPa | 1062.27
288.15 K, 60000 kPa | 1065.07
288.15 K, 65000 kPa | 1067.79
293.15 K, 100 kPa | 1020.2
293.15 K, 2000 kPa | 1021.76
293.15 K, 5000 kPa | 1024.16
293.15 K, 7000 kPa | 1025.73
293.15 K, 10000 kPa | 1028.04
293.15 K, 15000 kPa | 1031.77
293.15 K, 20000 kPa | 1035.39
293.15 K, 25000 kPa | 1038.88
293.15 K, 30000 kPa | 1042.27
293.15 K, 35000 kPa | 1045.56
293.15 K, 40000 kPa | 1048.68
293.15 K, 45000 kPa | 1051.85
293.15 K, 50000 kPa | 1054.87
293.15 K, 55000 kPa | 1057.79
293.15 K, 60000 kPa | 1060.64
293.15 K, 65000 kPa | 1063.42
298.15 K, 100 kPa | 1014.79
298.15 K, 2000 kPa | 1016.39
298.15 K, 5000 kPa | 1018.85
298.15 K, 7000 kPa | 1020.48
298.15 K, 10000 kPa | 1022.84
298.15 K, 15000 kPa | 1026.7
298.15 K, 20000 kPa | 1030.4
298.15 K, 25000 kPa | 1033.98
298.15 K, 30000 kPa | 1037.45
298.15 K, 35000 kPa | 1040.82
298.15 K, 40000 kPa | 1044.09
298.15 K, 45000 kPa | 1047.25
298.15 K, 50000 kPa | 1050.33
298.15 K, 55000 kPa | 1053.31
298.15 K, 60000 kPa | 1056.23
298.15 K, 65000 kPa | 1059.07
303.15 K, 100 kPa | 1009.39
303.15 K, 2000 kPa | 1011.03
303.15 K, 5000 kPa | 1013.57
303.15 K, 7000 kPa | 1015.23
303.15 K, 10000 kPa | 1017.69
303.15 K, 15000 kPa | 1021.62
303.15 K, 20000 kPa | 1025.42
303.15 K, 25000 kPa | 1029.11
303.15 K, 30000 kPa | 1032.66
303.15 K, 35000 kPa | 1036.1
303.15 K, 40000 kPa | 1039.44
303.15 K, 45000 kPa | 1042.68
303.15 K, 50000 kPa | 1045.81
303.15 K, 55000 kPa | 1048.89
303.15 K, 60000 kPa | 1051.84
303.15 K, 65000 kPa | 1054.72
308.15 K, 100 kPa | 1003.95
308.15 K, 2000 kPa | 1005.62
308.15 K, 5000 kPa | 1008.23
308.15 K, 7000 kPa | 1009.96
308.15 K, 10000 kPa | 1012.46
308.15 K, 15000 kPa | 1016.53
308.15 K, 20000 kPa | 1020.43
308.15 K, 25000 kPa | 1024.2
308.15 K, 30000 kPa | 1027.84
308.15 K, 35000 kPa | 1031.36
308.15 K, 40000 kPa | 1034.78
308.15 K, 45000 kPa | 1038.08
308.15 K, 50000 kPa | 1041.29
308.15 K, 55000 kPa | 1044.4
308.15 K, 60000 kPa | 1047.43
308.15 K, 65000 kPa | 1050.39
313.15 K, 100 kPa | 998.5
313.15 K, 2000 kPa | 1000.23
313.15 K, 5000 kPa | 1002.93
313.15 K, 7000 kPa | 1004.7
313.15 K, 10000 kPa | 1007.28
313.15 K, 15000 kPa | 1011.45
313.15 K, 20000 kPa | 1015.45
313.15 K, 25000 kPa | 1019.32
313.15 K, 30000 kPa | 1023.04
313.15 K, 35000 kPa | 1026.65
313.15 K, 40000 kPa | 1030.14
313.15 K, 45000 kPa | 1033.52
313.15 K, 50000 kPa | 1036.79
313.15 K, 55000 kPa | 1039.99
313.15 K, 60000 kPa | 1043.07
313.15 K, 65000 kPa | 1046.08
318.15 K, 100 kPa | 993.03
318.15 K, 2000 kPa | 994.81
318.15 K, 5000 kPa | 997.59
318.15 K, 7000 kPa | 999.4
318.15 K, 10000 kPa | 1002.05
318.15 K, 15000 kPa | 1006.33
318.15 K, 20000 kPa | 1010.45
318.15 K, 25000 kPa | 1014.42
318.15 K, 30000 kPa | 1018.23
318.15 K, 35000 kPa | 1021.93
318.15 K, 40000 kPa | 1025.49
318.15 K, 45000 kPa | 1028.94
318.15 K, 50000 kPa | 1032.3
318.15 K, 55000 kPa | 1035.54
318.15 K, 60000 kPa | 1038.69
318.15 K, 65000 kPa | 1041.75
323.15 K, 100 kPa | 987.55
323.15 K, 2000 kPa | 989.38
323.15 K, 5000 kPa | 992.24
323.15 K, 7000 kPa | 994.11
323.15 K, 10000 kPa | 996.84
323.15 K, 15000 kPa | 1001.25
323.15 K, 20000 kPa | 1005.47
323.15 K, 25000 kPa | 1009.52
323.15 K, 30000 kPa | 1013.45
323.15 K, 35000 kPa | 1017.21
323.15 K, 40000 kPa | 1020.87
323.15 K, 45000 kPa | 1024.41
323.15 K, 50000 kPa | 1027.81
323.15 K, 55000 kPa | 1031.14
323.15 K, 60000 kPa | 1034.36
323.15 K, 65000 kPa | 1037.48
328.15 K, 100 kPa | 982.01
328.15 K, 2000 kPa | 983.93
328.15 K, 5000 kPa | 986.87
328.15 K, 7000 kPa | 988.79
328.15 K, 10000 kPa | 991.61
328.15 K, 15000 kPa | 996.12
328.15 K, 20000 kPa | 1000.47
328.15 K, 25000 kPa | 1004.64
328.15 K, 30000 kPa | 1008.65
328.15 K, 35000 kPa | 1012.52
328.15 K, 40000 kPa | 1016.24
328.15 K, 45000 kPa | 1019.86
328.15 K, 50000 kPa | 1023.37
328.15 K, 55000 kPa | 1026.73
328.15 K, 60000 kPa | 1030.01
328.15 K, 65000 kPa | 1033.2
333.15 K, 100 kPa | 976.49
333.15 K, 2000 kPa | 978.46
333.15 K, 5000 kPa | 981.49
333.15 K, 7000 kPa | 983.47
333.15 K, 10000 kPa | 986.36
333.15 K, 15000 kPa | 991.02
333.15 K, 20000 kPa | 995.46
333.15 K, 25000 kPa | 999.74
333.15 K, 30000 kPa | 1003.86
333.15 K, 35000 kPa | 1007.82
333.15 K, 40000 kPa | 1011.63
333.15 K, 45000 kPa | 1015.34
333.15 K, 50000 kPa | 1018.9
333.15 K, 55000 kPa | 1022.36
333.15 K, 60000 kPa | 1025.71
333.15 K, 65000 kPa | 1028.94
338.15 K, 100 kPa | 970.87
338.15 K, 2000 kPa | 972.92
338.15 K, 5000 kPa | 976.06
338.15 K, 7000 kPa | 978.09
338.15 K, 10000 kPa | 981.08
338.15 K, 15000 kPa | 985.87
338.15 K, 20000 kPa | 990.45
338.15 K, 25000 kPa | 994.85
338.15 K, 30000 kPa | 999.06
338.15 K, 35000 kPa | 1003.09
338.15 K, 40000 kPa | 1007.02
338.15 K, 45000 kPa | 1010.79
338.15 K, 50000 kPa | 1014.44
338.15 K, 55000 kPa | 1017.97
338.15 K, 60000 kPa | 1021.38
338.15 K, 65000 kPa | 1024.7
